Experimental data from patent US10213476B2, “Compstatin analogs with improved potency and pharmacokinetic properties” (The Trustees of the University of Pennsylvania, priority 2014, dated 2019).
Like-named read-outs stand apart in the source and are kept apart here.

Columns and labels:
[1] = tested on: complement activation initiated via the classical pathway; assay: ELISA of immune complex-induced complement activation (classical pathway) in human plasma; format: biochemical
Experimental: Each peptide was dissolved in water, and its concentration was determined by Nanodrop using the absorbance at 280 nm. […] The percent inhibition was plotted against the peptide concentration, and the resulting data set was fitted to the logistic dose-response function to obtain IC50 values (FIG. 4).

baboon albumin = assay: SPR of albumin binding to immobilized ABM2-Cp20 (baboon albumin); conditions: baboon albumin 6.3-100 μM over immobilized biotinylated ABM2-Cp20; read-out: Apparent binding affinity
Experimental: Streptavidin was immobilized on all flow cells of CM5 sensor chips (GE Healthcare) using standard amine coupling under 30° C. […] Sets of five increasing concentrations (6.3-100 μM) of albumin from different species (human, mouse, bovine, rabbit and baboon) were injected over the chip surface (FIG. 2). Data were recorded at 25° C. using PBS-T (10 mM sodium phosphate, 150 mM NaCl, 0.005% Tween-20, pH 7.4) as running buffer. Data were processed in Scrubber (v2.0c; Bio-Logic Software, Campbell, Australia); the signals from an untreated flow cell and buffer blank injections were subtracted. Apparent binding affinities (KD app) were calculated by fitting the steady state responses to a single-binding-site model.

[2] = target: human serum albumin (HSA) (Homo sapiens, UniProt P02768); assay: SPR competition between immobilized ABM2-Cp20 and soluble ibuprofen for HSA; format: binding; conditions: concluded from ibuprofen (site II ligand) competition
Sequence of human serum albumin (HSA) (P02768 25-609): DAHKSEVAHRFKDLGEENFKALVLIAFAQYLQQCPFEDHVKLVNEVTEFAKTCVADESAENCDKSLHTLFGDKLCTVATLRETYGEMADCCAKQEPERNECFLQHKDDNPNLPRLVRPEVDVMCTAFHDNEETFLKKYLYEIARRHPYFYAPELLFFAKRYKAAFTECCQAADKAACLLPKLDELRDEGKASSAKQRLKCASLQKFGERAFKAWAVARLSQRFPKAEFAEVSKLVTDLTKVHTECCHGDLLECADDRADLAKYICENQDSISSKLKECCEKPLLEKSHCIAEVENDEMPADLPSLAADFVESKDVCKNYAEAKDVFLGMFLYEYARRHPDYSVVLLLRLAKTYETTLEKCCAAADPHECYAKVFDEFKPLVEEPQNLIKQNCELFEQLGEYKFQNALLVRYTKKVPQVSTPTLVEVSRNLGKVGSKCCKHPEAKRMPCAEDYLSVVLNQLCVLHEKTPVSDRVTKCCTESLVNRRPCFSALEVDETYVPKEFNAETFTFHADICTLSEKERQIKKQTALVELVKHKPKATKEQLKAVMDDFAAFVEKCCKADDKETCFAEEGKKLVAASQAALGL
Experimental: Data were recorded at 25° C. using PBS-T (10 mM sodium phosphate, 150 mM NaCl, 0.005% Tween-20, pH 7.4) as running buffer, and untreated flow cells were used as a reference surface.

[3] = Plasma protein binding by rapid equilibrium dialysis (RED); format: in vitro ADME; conditions: human, 37° C.; for fraction unbound at 24 h, 5 μM: peptide 5 μM; for fraction unbound at 24 h, 10 μM: peptide 10 μM
Experimental: A rapid equilibrium dialysis (RED) device with inserts (MWCO 8 K) was used (Thermo Scientific). C3-depleted serum (product no. A314) was purchased from Complement Technology, Tyler, Tex. Purified C3 (Complement Technology, A113c) was added to C3-depleted serum at a defined, physiologically relevant concentration (5 μM) to maintain the sample matrix and inhibitor-target ratio in comparative experiments (referred to as C3-positive serum).
Equilibrium dialysis using RED device was performed to determine the plasma protein binding. The inserts were soaked in water for 10 min before discarding the water (twice), and then used immediately (Waters et al., 2008, J. Pharm. Sci. 97, 4586). A mixture of 90 μL C3-depleted or C3-positive serum and 10 μL compstatin sample (5 or 10 μM) in PBS buffer (10% DMSO, 0.5% Tween 20, 0.2% sodium azide) was placed in the plasma chamber, and 300 μL PBS buffer (1% DMSO and 0.05% Tween 20) was placed in the buffer chamber. The final DMSO concentration of the dialysis system was 1%. The plate was covered with a sealing tape and incubated at 37° C. on an orbital shaker (200 rpm) for 24 h. Each sample was analyzed at least twice.
A 50-μL aliquot of each post-dialysis sample from both the plasma and buffer chambers was pipetted into separate LoBind tubes (Eppendorf). The samples from plasma chambers were diluted with 50 μL PBS, while samples from buffer chambers were diluted with C3-depleted, or C3 positive serum (matrix match). All samples were diluted to 100 μL using 4% H3PO4 to dissociate the peptides. […] The eluent was injected into the UPLC-HDMS system consisting of an online ACQUITY UPLC (Waters BEH C18 column, 130 Å, 1.7 μm, 2.1 mm×150 mm) coupled to a SYNAPT G2-S HDMS instrument equipped with an ESI source (capillary voltage was set to 3.2 kV, the cone voltage to 30 V and the source temperature to 120° C.). MS peak areas of the peptide were determined by integration for the quantification (Qu et al., 2013, supra). The unbound fraction of the peptide in plasma (% free) was calculated from the ratio of the buffer side response to the plasma side response. The bound fraction of the compound was calculated as follows: % bound=100−% free.

[4] = compared with parent peptide
C3b = target: T1, C3b (Homo sapiens, UniProt P01024); assay: SPR single-cycle kinetic analysis of compstatin analogs on immobilized C3b; conditions: C3b surface 3000-5000 RU, 25° C., PBS-T, 1:1 binding model
T1 construct: a two-chain molecule consisting of a β chain (residues 1 to about 645) and an α-chain (residues 650-1,641)
T1 sequence (P01024 23-667 limits assumed): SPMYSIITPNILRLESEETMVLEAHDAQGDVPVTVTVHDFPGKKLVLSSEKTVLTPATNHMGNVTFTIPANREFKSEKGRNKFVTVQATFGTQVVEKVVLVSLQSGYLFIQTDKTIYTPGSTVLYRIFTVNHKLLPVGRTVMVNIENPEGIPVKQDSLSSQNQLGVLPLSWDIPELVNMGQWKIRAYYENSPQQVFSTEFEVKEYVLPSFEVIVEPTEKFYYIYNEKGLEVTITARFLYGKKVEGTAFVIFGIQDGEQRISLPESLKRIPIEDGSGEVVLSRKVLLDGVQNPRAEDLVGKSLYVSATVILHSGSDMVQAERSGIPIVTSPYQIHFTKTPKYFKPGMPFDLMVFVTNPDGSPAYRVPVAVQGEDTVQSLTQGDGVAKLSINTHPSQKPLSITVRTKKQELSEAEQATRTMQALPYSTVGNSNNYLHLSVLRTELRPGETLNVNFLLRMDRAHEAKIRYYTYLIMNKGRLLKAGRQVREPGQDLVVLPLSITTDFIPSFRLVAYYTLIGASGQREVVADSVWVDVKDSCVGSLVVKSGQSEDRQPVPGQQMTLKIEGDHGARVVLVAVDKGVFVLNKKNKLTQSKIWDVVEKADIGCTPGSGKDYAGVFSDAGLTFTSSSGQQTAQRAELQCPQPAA
T1 sequence (P01024 749-1663 partner limits assumed): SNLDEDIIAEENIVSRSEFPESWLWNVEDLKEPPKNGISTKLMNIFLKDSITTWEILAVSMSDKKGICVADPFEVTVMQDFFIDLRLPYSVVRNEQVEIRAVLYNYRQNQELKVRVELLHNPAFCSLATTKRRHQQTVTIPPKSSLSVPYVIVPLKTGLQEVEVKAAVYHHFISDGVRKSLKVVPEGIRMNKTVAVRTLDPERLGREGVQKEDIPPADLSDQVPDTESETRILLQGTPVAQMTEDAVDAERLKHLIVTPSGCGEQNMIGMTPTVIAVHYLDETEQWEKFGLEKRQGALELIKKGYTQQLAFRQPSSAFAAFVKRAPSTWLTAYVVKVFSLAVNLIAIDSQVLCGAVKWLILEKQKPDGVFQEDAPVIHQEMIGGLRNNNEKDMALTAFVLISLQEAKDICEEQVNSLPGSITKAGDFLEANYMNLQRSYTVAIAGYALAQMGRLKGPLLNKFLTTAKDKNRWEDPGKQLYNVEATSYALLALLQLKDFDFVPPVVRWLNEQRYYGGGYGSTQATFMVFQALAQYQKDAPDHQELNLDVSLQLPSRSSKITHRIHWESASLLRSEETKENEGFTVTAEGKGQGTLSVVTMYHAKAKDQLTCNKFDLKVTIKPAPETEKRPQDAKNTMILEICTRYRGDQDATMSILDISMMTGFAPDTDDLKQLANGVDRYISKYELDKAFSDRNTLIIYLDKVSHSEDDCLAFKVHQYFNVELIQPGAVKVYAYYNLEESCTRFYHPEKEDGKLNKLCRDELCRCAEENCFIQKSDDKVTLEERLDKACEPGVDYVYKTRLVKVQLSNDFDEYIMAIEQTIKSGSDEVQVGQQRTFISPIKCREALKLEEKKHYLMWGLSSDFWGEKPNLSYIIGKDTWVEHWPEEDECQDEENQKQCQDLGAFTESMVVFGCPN
Experimental: Individual injections within a cycle were 2 min long with a 5-min dissociation between injections. After the end of the last injection, a 40-min dissociation time was allowed. […] Each assay was performed at least twice.

C3 = C3 (Homo sapiens, UniProt P01024); conditions: versus earlier compstatin analogs, backbone N-methylation; cited from earlier work
Sequence of C3 (P01024 23-1663): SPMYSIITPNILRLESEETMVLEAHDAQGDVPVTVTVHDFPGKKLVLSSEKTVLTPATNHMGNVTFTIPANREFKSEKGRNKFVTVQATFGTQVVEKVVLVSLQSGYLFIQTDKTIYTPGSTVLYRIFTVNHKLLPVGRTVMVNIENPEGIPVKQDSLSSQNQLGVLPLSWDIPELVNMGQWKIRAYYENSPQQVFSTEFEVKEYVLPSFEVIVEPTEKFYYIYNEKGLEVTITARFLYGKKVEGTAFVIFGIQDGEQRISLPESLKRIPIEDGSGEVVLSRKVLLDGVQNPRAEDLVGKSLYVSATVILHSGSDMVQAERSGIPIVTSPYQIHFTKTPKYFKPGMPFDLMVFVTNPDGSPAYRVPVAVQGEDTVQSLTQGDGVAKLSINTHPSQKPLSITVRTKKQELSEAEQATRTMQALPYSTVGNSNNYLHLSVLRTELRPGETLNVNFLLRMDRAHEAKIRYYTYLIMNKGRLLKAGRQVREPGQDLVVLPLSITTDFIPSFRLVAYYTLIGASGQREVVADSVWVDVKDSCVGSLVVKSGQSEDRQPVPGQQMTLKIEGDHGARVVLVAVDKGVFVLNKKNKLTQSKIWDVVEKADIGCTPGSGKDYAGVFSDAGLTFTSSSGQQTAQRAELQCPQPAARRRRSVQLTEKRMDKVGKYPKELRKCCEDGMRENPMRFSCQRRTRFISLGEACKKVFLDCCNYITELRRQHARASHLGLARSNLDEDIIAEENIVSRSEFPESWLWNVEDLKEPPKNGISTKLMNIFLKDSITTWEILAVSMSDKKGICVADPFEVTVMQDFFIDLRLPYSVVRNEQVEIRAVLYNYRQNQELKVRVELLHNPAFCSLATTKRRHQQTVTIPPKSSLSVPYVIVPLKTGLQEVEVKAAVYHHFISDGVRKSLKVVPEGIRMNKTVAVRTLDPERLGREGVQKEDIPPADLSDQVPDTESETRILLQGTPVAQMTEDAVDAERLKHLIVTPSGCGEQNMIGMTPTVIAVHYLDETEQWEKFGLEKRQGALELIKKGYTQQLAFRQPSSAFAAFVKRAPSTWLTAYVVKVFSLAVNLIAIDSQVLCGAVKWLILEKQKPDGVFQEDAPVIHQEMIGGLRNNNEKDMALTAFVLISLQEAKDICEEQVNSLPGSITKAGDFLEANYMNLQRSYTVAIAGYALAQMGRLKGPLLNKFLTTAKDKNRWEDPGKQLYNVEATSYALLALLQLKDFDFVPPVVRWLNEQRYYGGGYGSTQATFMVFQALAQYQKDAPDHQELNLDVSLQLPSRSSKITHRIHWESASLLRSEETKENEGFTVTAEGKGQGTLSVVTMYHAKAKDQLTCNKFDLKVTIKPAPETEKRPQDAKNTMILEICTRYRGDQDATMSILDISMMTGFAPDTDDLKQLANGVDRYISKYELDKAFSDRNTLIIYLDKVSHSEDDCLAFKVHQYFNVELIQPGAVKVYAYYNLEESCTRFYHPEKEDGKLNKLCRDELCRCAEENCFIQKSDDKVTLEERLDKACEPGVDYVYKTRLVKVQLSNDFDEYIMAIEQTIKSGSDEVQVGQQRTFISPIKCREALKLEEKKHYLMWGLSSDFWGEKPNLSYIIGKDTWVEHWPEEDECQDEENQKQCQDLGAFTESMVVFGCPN

[5] = NHP; cited from earlier work
[6] = in human; cited from earlier work
human serum albumin = human serum albumin (Homo sapiens, UniProt P02768); conditions: cited from earlier work
Sequence of human serum albumin (P02768 25-609): as the sequence (P02768 25-609) above

[7] = C3-depleted serum with 5 μM purified C3, 24 h, read-out: C3-positive serum % bound
[8] = C3-depleted serum, 24 h, read-out: C3-depleted serum % bound (converted)
[9] = C3-depleted serum with 5 μM purified C3, 24 h, read-out: C3-positive serum % bound (converted)

| SMILES | IC50 [1] [nM] | fraction unbound at 24 h, 5 μM [3, 7] | fraction unbound at 24 h, 5 μM [3, 8] | fraction unbound at 24 h, 10 μM [3, 9] | fraction unbound at 24 h, 10 μM [3, 8] | kd (C3b) | half-life [5] [h] | also measured |
| --- | --- | --- | --- | --- | --- | --- | --- | --- |
| CC[C@H](C)[C@H](NC(=O)CCCCCOP(=O)(O)OC1CCC(c2ccccc2)(c2ccccc2)CC1)C(=O)N[C@H]1CSSC[C@@H](C(=O)N(C)[C@H](C(N)=O)[C@@H](C)CC)NC(=O)[C@H](CCCNC(=N)N)NC(=O)[C@H](Cc2c[nH]cn2)NC(=O)[C@H](C)NC(=O)CN(C)C(=O)[C@H](Cc2c[nH]c3ccccc23)NC(=O)[C@H](CC(=O)O)NC(=O)[C@H](CCC(N)=O)NC(=O)[C@H](Cc2cn(C)c3ccccc23)NC(=O)[C@H](C(C)C)NC1=O [ABM2-Cp20, ABM2-Ile-[Cys-Val-Trp(Me)-Gln-Asp-Trp-Sar-Ala-His-Arg-Cys]-mIle-NH2] | 170 ± 110 | < 0.01 | < 0.01 | < 0.01 | < 0.01 |  |  | Kd (baboon albumin): 106000 ± 3000 nM; albumin binding site [2]: binds primarily to site II; solubility [4]: lower solubility |
| CC[C@H](C)[C@H](NC(=O)[C@@H](Cc1ccc(O)cc1)NC(=O)CCCCCOP(=O)(O)OC1CCC(c2ccccc2)(c2ccccc2)CC1)C(=O)N[C@H]1CSSC[C@@H](C(=O)N(C)[C@H](C(N)=O)[C@@H](C)CC)NC(=O)[C@H](CCCNC(=N)N)NC(=O)[C@H](Cc2c[nH]cn2)NC(=O)[C@H](C)NC(=O)CN(C)C(=O)[C@H](Cc2c[nH]c3ccccc23)NC(=O)[C@H](CC(=O)O)NC(=O)[C@H](CCC(N)=O)NC(=O)[C@H](Cc2cn(C)c3ccccc23)NC(=O)[C@H](C(C)C)NC1=O [ABM2-Cp40] | 80 ± 30 |  |  |  |  | 0.5 ± 0.2 10^−3 s^−1 |  |  |
| CC[C@H](C)[C@H](NC(C)=O)C(=O)N[C@H]1CSSC[C@@H](C(=O)N(C)[C@H](C(N)=O)[C@@H](C)CC)NC(=O)[C@H](CCCNC(=N)N)NC(=O)[C@H](Cc2c[nH]cn2)NC(=O)[C@H](C)NC(=O)CN(C)C(=O)[C@H](Cc2c[nH]c3ccccc23)NC(=O)[C@H](CC(=O)O)NC(=O)[C@H](CCC(N)=O)NC(=O)[C@H](Cc2cn(C)c3ccccc23)NC(=O)[C@H](C(C)C)NC1=O [Cp20, Ac-Ile-[Cys-Val-Trp(Me)-Gln-Asp-Trp-Sar-Ala-His-Arg-Cys]-mIle-NH2, reference compound] | 260 ± 120 | < 0.01 | 0.93 | 0.16 | 0.97 | 6.7 ± 2.9 10^−3 s^−1 | 9 | kon (C3b; read-out: ka): 2.3e+06 ± 700000 M⁻¹ s⁻¹; improved affinity (C3): 10 fold |
| CC[C@H](C)[C@H](NC(=O)[C@H](N)Cc1ccc(O)cc1)C(=O)N[C@H]1CSSC[C@@H](C(=O)N(C)[C@H](C(N)=O)[C@@H](C)CC)NC(=O)[C@H](CCCNC(=N)N)NC(=O)[C@H](Cc2c[nH]cn2)NC(=O)[C@H](C)NC(=O)CN(C)C(=O)[C@H](Cc2c[nH]c3ccccc23)NC(=O)[C@H](CC(=O)O)NC(=O)[C@H](CCC(N)=O)NC(=O)[C@H](Cc2cn(C)c3ccccc23)NC(=O)[C@H](C(C)C)NC1=O [Cp40, (D)Tyr-Ile-[Cys-Val-Trp(Me)-Gln-Asp-Trp-Sar-Ala-His-Arg-Cys]-mIle-NH2, reference compound] |  |  |  |  |  | 1.3 ± 0.2 10^−3 s^−1 | 12 |  |
| O=C([O-])CN(CCN(CC(=O)[O-])CC(COP(=O)([O-])OC1CCC(c2ccccc2)(c2ccccc2)CC1)N(CC(=O)[O-])CC(=O)[O-])CC(=O)[O-].[Gd+3].[Na+].[Na+].[Na+] (centres unmarked) [MS-325, gadofosveset trisodium] |  |  |  |  |  |  |  | intravascular half-life [6]: 18.5 ± 3 h; Kd (human serum albumin): 164000 nM |
